Values after ≈ are worked out from the molar mass of the structure shown.

Data set [1] is described as follows: in vitro. The following applies: human (MCF-7, NCI-H187); African green monkey (Vero).
The test system of data set [2] is Mycobacterium bovis. The following applies: cited from earlier work.
In data set [3] the test system is S. aureus. As to conditions: literature value; cited from earlier work.
Data set [4] concerns Escherichia coli. As to conditions: literature value; cited from earlier work.
Data set [5] has as its system Bacillus cereus ATCC 11778. Put plainly: Antibacterial optical density microplate assay, B. cereus. The following applies: for MIC: Bacillus cereus, ATCC11778, read-out: Anti-Bacillus cereus (MIC, µg/ml); for Anti-Bacillus cereus (MIC, µg/ml): B. cereus ATCC 11778, maximum tested concentration 50 µg/ml. It counts as cell-based.
The subject of data set [6] is Staphylococcus aureus ATCC 29213. Put plainly: Antibacterial optical density microplate assay, S. aureus. It is filed as cell-based. The following applies: ATCC29213, read-out: Anti-Staphylococcus aureus (MIC, µg/ml).
Data set [7] relates to MCF-7 (human breast cancer) cells. As to conditions: maximum tested concentration 50 µg/ml.
Data set [8] deals with NCI-H187 (human small-cell lung cancer) cells. The following applies: maximum tested concentration 50 µg/ml.
For data set [9], the system named is Vero cells. The following applies: non-cancerous, maximum tested concentration 50 µg/ml.
The nature of data set [10]: in vitro. The following applies: human.
Data set [11] in a line: in vitro. The following applies: human. The source holds these as a separate data set.

As to `CC(=O)Nc1c2sscc-2n(C)c1=O` [Compound 1, thiolutin], in data set [1], the IC50 was in the range of 0.35 to 5.61 µM. In data set [2], the “MIC against Mycobacterium bovis” value is 0.313 µg/mL (≈ 1.37 µM). Also, the “MIC against S. aureus” value in [3] was 3.125 µg/mL (≈ 13.7 µM). Besides, the “MIC against Escherichia coli” value in [4] was 6.25 µg/mL (≈ 27.4 µM). For the same compound, the MIC in data set [5] is 1.56 µg/mL (≈ 6.83 µM); in [6], 3.13 µg/mL (≈ 13.7 µM).
With `Nc1cccc2c(=O)[nH]c(=O)oc12` [Compound 3, 8-amino-2 H-benz[e][1,3]oxazine-2,4(3 H)-dione], the “Cytotoxicity (IC50, µM) MCF-7” value in data set [7] is on record as “Inactive”. In addition, the “Cytotoxicity (IC50, µM) NCI-H187” value in [8] is recorded as “Inactive”. Besides, the “Anti-Bacillus cereus (MIC, µg/ml)” value in data set [5] is reported as “Inactive”. The “Cytotoxicity (IC50, µM) Vero” value in data set [9] is reported as “Inactive”.
`NC(=O)c1cccc(O)c1O` [Compound 5, 2,3-dihydroxybenzamide]: the “Cytotoxicity (IC50, µM) MCF-7” value in data set [7] is “Inactive”. Also, the “Anti-Bacillus cereus (MIC, µg/ml)” value in data set [5] was “Inactive”. Besides, in data set [9], the “Cytotoxicity (IC50, µM) Vero” value is reported as “Inactive”. This compound also displayed an IC50 in data set [10] of 33.8 µM.
On to `COc1cccc(C(N)=O)c1O` [Compound 6, 2-hydroxy-3-methoxybenzamide], for which, in data set [7], the “Cytotoxicity (IC50, µM) MCF-7” value was “Inactive”. Also, the “Cytotoxicity (IC50, µM) NCI-H187” value in [8] is given as “Inactive”. Moreover, the “Anti-Bacillus cereus (MIC, µg/ml)” value in data set [5] is listed as “Inactive”. For the same compound, in data set [9], the “Cytotoxicity (IC50, µM) Vero” value is “Inactive”.
Compound `Cc1c2ccncc2c(C)c2c1[nH]c1ccccc12` [Ellipticine, reference compound] returned an IC50 in data set [10] of 11.8 µM.
Consider `CO[C@H]1/C=C/O[C@@]2(C)Oc3c(C)c(O)c4c(O)c(c(/C=N/N5CCN(C)CC5)c(O)c4c3C2=O)NC(=O)/C(C)=C\C=C\[C@H](C)[C@H](O)[C@@H](C)[C@@H](O)[C@@H](C)[C@H](OC(C)=O)[C@@H]1C` [Rifampicin, reference compound], for which the MIC lay in the range of 0.16 to 0.63 µg/mL (≈ 0.194 to 0.766 µM) in data set [5] and 0.04 to 0.56 µg/mL (≈ 0.0486 to 0.68 µM) in [6].
In data set [11], `CC/C(=C(\c1ccccc1)c1ccc(OCCN(C)C)cc1)c1ccccc1` [Tamoxifen] came in with an IC50 of 43.4 µM.
For `CN[C@H](CC(C)C)C(=O)N[C@H]1C(=O)N[C@@H](CC(N)=O)C(=O)N[C@H]2C(=O)N[C@H]3C(=O)N[C@H](C(=O)N[C@H](C(=O)O)c4cc(O)cc(O)c4-c4cc3ccc4O)[C@H](O)c3ccc(c(Cl)c3)Oc3cc2cc(c3O[C@@H]2O[C@H](CO)[C@@H](O)[C@H](O)[C@H]2O[C@H]2C[C@](C)(N)[C@H](O)[C@H](C)O2)Oc2ccc(cc2Cl)[C@H]1O` [Vancomycin, reference compound], the MIC in data set [5] was 1 to 2 µg/mL (≈ 0.69 to 1.38 µM); in [6], 4 µg/mL (≈ 2.76 µM).

The IC50 is the concentration at which inhibition is half-maximal.
